From patent US8372810B2, “Anti-tumor drug, medicament, composition, and use thereof” (Gene Signal International SA, priority 2007, dated 2013)
Values joined by “and” are separate entries in the source; they are usually repeats but may differ in a detail not shown here. Equal values may be shown once. “Also recorded” adds a separate entry of the source.

Legend:
HUVEC = test: Wound assay, migration of human endothelial cells; type: cell-based; conditions: 18 hours; 497C-T2 0.83 and 1.66 μM; 497C-T3 2.4 μM; 497C-T4 3.52 μM; 497C-T5 3.65 μM; C-terminal tail 4.92 μM
Method: Cell migration was tested by the wound assay described by Sato and Rifkin (J Cell Biol. 1988; 107:1199) with few modifications. HUVEC grown in growth medium EGM-2MV (Cambrex) were seeded in 24-well plates at 80 000 cells per well in 500 μL of growth medium and grown to confluence at 37° C. in a humidified atmosphere containing 5% CO2. Cells were scrapped with a plastic tip on one line only. After wounding, the culture medium was changed for fresh medium (control, FIG. 3a) or fresh medium supplemented with: • FIG. 3b: 497C-T2 20 μg/mL (0.83 μM) • FIG. 3c: 497C-T2 40 μg/mL (1.66 μM) • FIG. 3d: 497C-T3 48 μg/mL (2.4 μM) • FIG. 3e: 497C-T4 60 μg/mL (3.52 μM) • FIG. 3f: 497C-T5 61 μg/mL (3.65 μM) • FIG. 3g: C-terminal tail 63 μg/mL (4.92 μM)
After 18 hours of culture, cells were observed and photographed under the inverted microscope (Analysis, Olympus, Rungis, France).

NCI H460 human tumor = NCI H460 human tumor xenograft in Swiss Nude mice, tumor growth; type: in vivo; parameters: key to MRTV D28 / MRTV D12 / MRTV D14 / MRTV D16 / MRTV D18 / MRTV D20 / MRTV D22 / MRTV D24 / MRTV D26: ratio of mean tumor volume at day t to volume at injection (D12)
Method: NCI H460 cells were cultured as adherent cells in complete RPMI 1640 medium (Ref. CM1RRM08-01, batch No. 623615, Eurobio, France) containing 2 mM L-Glutamine, adjusted to 4.5 g/L glucose (Ref. G7528, batch No. 033K0121, Sigma, France) and supplemented with 10 mM HEPES (Ref. H0887, batch No. 113K2338, Sigma, France), 1.0 mM sodium pyruvate (Ref. CSTVAT00-0U, batch No. 520818, Sigma, France) and 10% fetal calf serum (FCS; Ref. CVFSVF00-01, batch No. S13021, Eurobio, France) under a 37° C., 5% CO2 humidified atmosphere. They were amplified in 75 cm^2-flasks to reach 90×10^6 cells.
At D0, NCI H460 cells (human lung carcinoma) were collected from 75 cm^2-flasks by removing the medium and adding 3 ml of trypsine-EDTA (Ref. CEZTDA00-0U, batch No. 633920, Eurobio, France). After 5 min of incubation at 37° C., cells were detached from the plastic and the enzymatic reaction was stopped by adding 3 ml of RPMI 1640 medium containing 10% fetal calf serum. Cells were then centrifuged at 700 g for 5 min at room temperature. They were resuspended in serum-free RPMI 1640 culture medium containing L-Glutamine (2 mM), glucose (4.5 g/l), sodium pyruvate (1 mM) and buffered with HEPES (10 mM). Cells were counted and the number of viable NCI H460 cells was >99%. The number of cells was then adjusted to 25.10^6 cells/ml in serum-free medium.
NCI H460 cells (5.10^6 cells/mouse in 200 μL of serum-free medium) were then implanted subcutaneously in the right flank of each mouse.
At D12 post-implantation of the NCI H460 cells, the thirty mice were randomized into six groups of 5 mice. Tumor volumes had reached 228 to 468 mm^3 and mean tumor volumes were not statistically different between groups after randomization.
All solutions were injected IP.
Animals have been observed daily.
• Tumor growth curves were drawn using the mean tumor volumes (MTV), • Mean Relative tumor volume (MRTV) was calculated as the ratio between the MTV at time t and the volume at the time of injection (t=D12), • Tumor growth inhibition (T/C, %) was evaluated as the ratio of the median tumor volumes of treated groups versus vehicle group.
Statistical analyses of tumor volumes (V), time to reach ‘V’, tumor-doubling time (DT), relative tumor volume (RTV) and tumor growth inhibition (T/C) were performed for all groups. Data are expressed as mean±SD. Groups of data were normally distributed. Univariate analysis were performed to assess differences between groups. Statistical significance was then determined using the Student's t test. A P<0.05 was considered as statistically significant. The Statistical analysis was performed using XLSTAT (Addinsoft, France).

CALU-6 tumors = test: CALU-6 non-small cell lung cancer xenograft in Swiss Nude mice, tumor growth; type: in vivo; conditions: IP Q2DX8, CDDP 5 mg/kg (G2), 497C-T2 10 mg/kg (G3), 497C-T2 10 mg/kg + CDDP 5 mg/kg (G4)
Method: CALU-6 cells were cultured as adherent cells in complete EMEM medium (Ref. CM1MEM18-01, batch No. 462502, Eurobio, France) 10% fetal calf serum (FCS; Ref. CVFSVF00-01, batch No. 513021, Eurobio, France) under a 37° C., 5% CO2 humidified atmosphere. They were amplified in 75 cm^2-flasks to reach 90×10^6 cells.
At D0, CALU-6 cells (human lung carcinoma) were collected from 75 cm^2-flasks by removing the medium and adding 3 ml of trypsine-EDTA (Ref. CEZTDA00-0U, batch No. 633920, Eurobio, France). After 5 min of incubation at 37° C., cells had detached from the plastic and the enzymatic reaction was stopped by adding 3 ml of EMEM medium containing 10% fetal calf serum. Cells were then centrifuged at 700 g for 5 min at room temperature. They were resuspended in serum-free EMEM culture medium. Cells were counted and viability assessment by Trypan Blue exclusion (Ref. CSTCOL03-OU, batch No. 434511, Eurobio, France). The number of viable CALU-6 cells was >99%. The number of cells was then adjusted to 25×10^6 cells/ml in serum-free medium.
CALU-6 cells 5×10^6 cells/mouse in 200 μl of serum-free medium) were then implanted subcutaneously in the right flank of each mouse.
At D12 post-implantation of the CALU-6 cells, the thirty mice were randomized into six groups of 5 mice. Tumor volumes had reached 228 to 468 mm^3 and mean tumor volumes were not statistically different between groups after randomization.
Mean tumor volumes (MTV), mean relative tumor volume (MRTV) and tumor growth inhibition (T/C) were calculated as for example 7.

[1] = IP Q2DX8, CDDP 5 mg/kg (G2), 497C-T2 10 mg/kg (G3), 497C-T2 10 mg/kg + CDDP 5 mg/kg (G5)

For “497C-T4: d1, d2 and e domains of the LEL domain of protein 497C, SEQ ID NO:5 (49 amino acids) (IPPSCCMNETDCNPQDLHNLTVAATKVNQKGCYDLVTSFMETNMGIIAG; listed as Homo sapiens)”, the “inhibition of endothelial cell migration” value (HUVEC) was “less active than 497C-T2; also recorded: limited activities relative to that of 497C-T2”.

In the case of “497C-T5: d2 and e domains of the LEL domain of protein 497C, SEQ ID NO:6 (43 amino acids) (MNETDCNPQDLHNLTVAATKVNQKGCYDLVTSFMETNMGIIAG; listed as Homo sapiens)”, the “inhibition of endothelial cell migration” value (HUVEC) is reported as “very limited anti-migratory activity; also recorded: limited activities relative to that of 497C-T2”.

For `N.N.[Cl][Pt][Cl]` [Cisplatin, cis-diamineplatinum (II) dichloride, reference compound], the “reduction of tumor size compared to the vehicle-treated group 1” value (NCI H460 human tumor; D28, CDDP 5 mg/kg IP Q2DX8 (G2)) was 68%, the “DT (doubling time of tumor volume)” value (NCI H460 human tumor; [1]) was 5.12 ± 2.89 days and 5.12 days and the “MRTV D14” value (NCI H460 human tumor; [1]) was 1.59. For the same molecule, the “MRTV D16” value (NCI H460 human tumor; [1]) was 1.74, the “MRTV D18” value (NCI H460 human tumor; [1]) was 2.30 and the “MRTV D20” value (NCI H460 human tumor; [1]) was 2.29. The “MRTV D22” value (NCI H460 human tumor; [1]) was 3.39, the “MRTV D24” value (NCI H460 human tumor; [1]) was 3.67 and the “MRTV D26” value (NCI H460 human tumor; [1]) was 3.67. For the same molecule, the “MRTV D28” value (NCI H460 human tumor; [1]) was 4.88, the “MTV at D14” value (NCI H460 human tumor; [1]) was 513.35 mm^3 and the “MTV at D24” value (NCI H460 human tumor; [1]) was 1083.74 mm^3. For the same molecule, the “MTV at D28” value (NCI H460 human tumor; [1]) was 1440±1097 mm^3 and 1440.18 mm^3, the “MRTV D12” value (NCI H460 human tumor; reference day, IP Q2DX8, CDDP 5 mg/kg (G2), 497C-T2 10 mg/kg (G3), 497C-T2 10 mg/kg + CDDP 5 mg/kg (G5)) was 1.00 and the “MRTV D14” value (CALU-6 tumors) was 3.11. For the same molecule, the “MRTV D16” value (CALU-6 tumors) was 2.39, the “MRTV D18” value (CALU-6 tumors) was 2.66 and the “MRTV D20” value (CALU-6 tumors) was 3.08. The “MRTV D22” value (CALU-6 tumors) was 3.70, the “MRTV D24” value (CALU-6 tumors) was 4.84 and the “MRTV D26” value (CALU-6 tumors) was 4.11. The “MRTV D28” value (CALU-6 tumors) was 5.98, the “MTV at D28” value (CALU-6 tumors) was 742.44±215.85 mm^3 and the “MRTV D12” value (CALU-6 tumors; reference day) was 1.

B1: 497C-T3: c, d1, d2 and e domains of the LEL domain of protein 497C, SEQ ID NO:4 (74 amino acids) (protein, listed as Homo sapiens)
chain: QRSLSCCGVQNYTNWSTSPYFLEHGIPPSCCMNETDCNPQDLHNLTVAATKVNQKGCYDLVTSFMETNMGIIAG
B1 was tested, and the “inhibition of endothelial cell migration” value (HUVEC) was “inhibited cell migration similarly to the protein 497C-T2; also recorded: almost as potent than 497C-T2”.
